Earlier results in PMC5673907 (Clinical and Translational Science, 2017).

Test system: HDL inflammatory index
Details: simvastatin 40 mg daily

## CCC(C)(C)C(=O)O[C@H]1C[C@@H](C)C=C2C=C[C@H](C)[C@H](CC[C@@H]3C[C@@H](O)CC(=O)O3)[C@H]21 [simvastatin]
  Mean HII after statin: above 1.0 UR
6 weeks, statin-naive CHD/equivalent risk
  Drop in HII: 28%
